Reference: patent publication US20250108027A1, “TOPICAL DELIVERY OF EDTA COMPOSITIONS” (priority 2023, published 2025)
Converted amounts (≈) assume the structure as drawn.

How the values were obtained:
[1] = system: E. Coli HC1-R2A-1; settings: alone, 37° C., 24 h
Procedure: (§1) Microbroth dilution in 96-well microtiter plates was performed on the E. coli and S. epidermidis strains. […] Each test was performed in duplicate. The MIC was determined as the lowest concentration where no growth was observed, but the adjacent wells had growth as determined by optical density.

[2] = system: S. epidermidis HC3-CA-1; test: MIC in combination, checkerboard titration; settings: in combination with tetracycline
Procedure: (§3) Microtiter plates were incubated at 37° C. for 24 h and the results were analyzed. Each test included a growth control without addition of any antimicrobials, as well as an uninoculated control column to ensure there was no contamination in the plate. The combination MIC was taken as the concentration where no growth was observed by optical density but the wells immediately adjacent had growth. To determine the MBC, 5 μL aliquots were removed from each well in the 96-well MIC plates above and used to inoculate a new microtiter plate that was filled with Mueller-Hinton media. This new microtiter plate was incubated at 37° C. for 24 h and growth was quantified by measuring the optical density in the wells.
(§4) The potential interaction of the two antimicrobials was determined by the FICI (fractional inhibitory concentration index) and FBCI (fractional bactericidal concentration index).

[3] = system: S. epidermidis HC3-CA-1; test: MBC in combination, checkerboard titration and subculture; settings: in combination with tetracycline
Procedure: as §3, §4

[4] = system: E. Coli HC1-R2A-1; test: as above; settings: in combination with tetracycline
Procedure: as §3, §4

[5] = system: S. epidermidis HC3-CA-1; test: MIC in isolation, microbroth dilution; format: cell-based
Procedure: as §1

[6] = system: E. Coli HC1-R2A-1; test: MIC in combination, checkerboard titration; settings: in combination with tetracycline
Procedure: as §3, §4

[7] = system: S. epidermidis HC3-CA-1; test: MBC in isolation, subculture from MIC plates; format: cell-based
Procedure: (§2) This new microtiter plate was incubated at 37° C. and growth was quantified after 24 h by measuring the optical density in the wells.

[8] = system: E. Coli HC1-R2A-1; test: MBC in isolation, subculture from MIC plates; format: cell-based
Procedure: as §2

Structure (SMILES)	MIC in Isolation, T-EDTA [1] [wt %]	MIC in Combination, T-EDTA [2] [wt %]	MBC in Combination, T-EDTA [3] [wt %]	MBC in Combination, T-EDTA [4] [wt %]	MIC in Isolation, T-EDTA ([5]; alone, 37° C., 24 h) [wt %]	MIC in Combination, T-EDTA [6] [wt %]	MBC in Isolation, T-EDTA ([7]; alone) [wt %]	MBC in Isolation, T-EDTA ([8]; alone) [wt %]	MIC ([5]; Staphylococcus epidermidis, HC3CA1, read-out: MIC in Isolation, Tetracycline, alone, 37° C., 24 h) [µg/mL]	MBC ([7]; Staphylococcus epidermidis, HC3CA1, read-out: MBC in Isolation, Tetracycline, alone) [µg/mL]	MBC ([8]; Escherichia coli, read-out: MBC in Isolation, Tetracycline, alone) [µg/mL]
O=C([O-])CN(CCN(CC(=O)[O-])CC(=O)[O-])CC(=O)[O-].[Na+].[Na+].[Na+].[Na+] [T-EDTA, tetrasodium EDTA]	1	0.015	0.25	0.25	0.0625	0.25	4	1			
CN(C)[C@@H]1C(O)=C(C(N)=O)C(=O)[C@@]2(O)C(O)=C3C(=O)c4c(O)cccc4[C@@](C)(O)[C@H]3C[C@@H]12 [Tetracycline, tetracycline, reference compound]									8 (≈ 18 µM)	8 (≈ 18 µM)	512 (≈ 1150 µM)
